How the values were obtained:
[1] = target: T1, Solute carrier organic anion transporter family member 1B3 (Homo sapiens, UniProt Q9NPD5); conditions: chinese hamster, cho, 10 µM
T1 sequence (Q9NPD5 whole entry): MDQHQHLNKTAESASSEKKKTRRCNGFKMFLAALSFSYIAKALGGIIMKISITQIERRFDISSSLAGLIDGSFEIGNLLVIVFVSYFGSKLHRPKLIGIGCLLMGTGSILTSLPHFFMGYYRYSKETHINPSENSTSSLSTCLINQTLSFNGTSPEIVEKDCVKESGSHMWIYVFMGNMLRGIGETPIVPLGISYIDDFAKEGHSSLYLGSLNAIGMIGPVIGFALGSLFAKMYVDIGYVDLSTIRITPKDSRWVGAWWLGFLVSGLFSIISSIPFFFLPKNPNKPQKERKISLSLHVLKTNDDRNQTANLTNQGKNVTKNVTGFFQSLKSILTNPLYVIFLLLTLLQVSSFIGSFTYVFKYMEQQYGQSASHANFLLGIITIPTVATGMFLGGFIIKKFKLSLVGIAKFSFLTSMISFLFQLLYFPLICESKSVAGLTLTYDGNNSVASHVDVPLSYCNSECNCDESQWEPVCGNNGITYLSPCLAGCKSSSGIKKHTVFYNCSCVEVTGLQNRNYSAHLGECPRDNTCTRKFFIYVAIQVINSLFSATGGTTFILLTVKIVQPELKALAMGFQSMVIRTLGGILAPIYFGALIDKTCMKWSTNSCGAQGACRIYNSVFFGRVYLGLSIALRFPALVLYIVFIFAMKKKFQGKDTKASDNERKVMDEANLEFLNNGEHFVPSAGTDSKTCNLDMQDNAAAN

[2] = target: T2, Solute carrier organic anion transporter family member 1B1 (Homo sapiens, UniProt Q9Y6L6); conditions: chinese hamster, cho, 10 µM
T2 sequence (Q9Y6L6 whole entry): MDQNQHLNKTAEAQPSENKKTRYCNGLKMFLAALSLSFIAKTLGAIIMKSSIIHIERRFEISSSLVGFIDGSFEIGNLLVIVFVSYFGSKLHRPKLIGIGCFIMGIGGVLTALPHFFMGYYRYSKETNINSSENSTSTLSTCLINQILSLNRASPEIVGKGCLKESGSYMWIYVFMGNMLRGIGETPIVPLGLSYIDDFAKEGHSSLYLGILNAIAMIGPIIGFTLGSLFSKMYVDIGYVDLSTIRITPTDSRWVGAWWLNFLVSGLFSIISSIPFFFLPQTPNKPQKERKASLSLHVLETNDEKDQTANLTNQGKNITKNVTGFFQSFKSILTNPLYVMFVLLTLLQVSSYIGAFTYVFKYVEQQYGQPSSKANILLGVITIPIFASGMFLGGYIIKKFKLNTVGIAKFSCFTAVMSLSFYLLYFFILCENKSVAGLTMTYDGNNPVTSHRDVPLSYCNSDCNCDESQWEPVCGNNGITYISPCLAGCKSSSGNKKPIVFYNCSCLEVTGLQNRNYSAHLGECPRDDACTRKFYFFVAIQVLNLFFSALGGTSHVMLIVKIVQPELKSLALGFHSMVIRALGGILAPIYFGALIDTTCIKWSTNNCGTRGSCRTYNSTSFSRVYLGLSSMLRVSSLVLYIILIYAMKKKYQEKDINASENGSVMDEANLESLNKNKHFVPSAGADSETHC

SMILES | residual activity [1] [%] | residual activity [2] [%]
CCOc1cccc(C(=O)c2ccc(O)c(O)c2O)c1 | 108.6 | 134.3
CNc1ccccc1C(=O)O | 100.4 | 90.95
CC(=O)Oc1ccc2c(c1OC(C)=O)OC[C@]1(O)Cc3c(cc(OC(C)=O)c(OC(C)=O)c3OC(C)=O)[C@H]21 | 111.5 | 101.4
N[C@@H](CSCSC[C@H](N)C(=O)O)C(=O)O | 96.92 | 92.41
C=C1C[C@H]2O[C@]2(C)CC[C@@H]2[C@@H]1CC2(C)C | 80.12 | 54.1
C[C@H]1[C@H](C)CC[C@@]23CC[C@]4(C)[C@@](C=C[C@@H]5[C@@]6(C)CC[C@H](O)C(C)(C)[C@@H]6CC[C@]54C)(OC2=O)[C@H]13 | 98.51 | 114.4
C[C@@H]1C[C@H](O)[C@@]2(O)[C@]13CC(=O)OC[C@]2(C)[C@@](C)(O)C(=O)C3 | 109.4 | 95.73
CC1(C)C[C@@H]2[C@H]1CC[C@]1(C)C[C@@]2(O)CC[C@H]1O | 87.7 | 81.35
CC1=CC2C(C(C)C)CC[C@@](C)(O)C2CC1 (some centres undefined) | 88.94 | 80.24
C=C[C@@](C)(O)CC[C@H]1C(=C)C[C@H](OC(C)=O)[C@H]2C(C)(C)CCC[C@]12C | 80.26 | 81.97
C=C1C([C@]2(C)C(CC(=O)OC)[C@@](C)(COC(C)=O)OC(=O)C[C@H]2OC(C)=O)[C@@H](OC=O)[C@@H](OC(=O)C(O)C(C)CC)[C@@]2(C)[C@H](c3ccoc3)CC(=O)C12O (some centres undefined) | 54.44 | 28.24
COc1ccc(C(=O)O[C@@H]2CC[C@@]3(C)[C@@H]4CC[C@H]5[C@]6(O)C[C@H](O)[C@@]7(O)[C@@H](CN8C[C@@H](C)CC[C@H]8[C@@]7(C)O)[C@]6(O)C[C@@]53O[C@@]42O)cc1OC.O=S(=O)(O)O | 91.85 | –
CC(=O)Oc1ccc2c(c1)CC[C@@H]1[C@@H]2CC[C@]2(C)[C@@H](OC(C)=O)CC[C@@H]12 | 113.7 | –
Cc1cc(O)cc(=O)o1 | 97.35 | 87.56
CCCCC(CC)CN=C(N)N=C(N)NCCCCCCNC(N)=NC(N)=NCC(CC)CCCC.Cl (centres undefined) [ALEXIDINE HYDROCHLORIDE] | – | 69.95
O=P(O)(O)O.c1ccc(CN(CC2=NCCN2)c2ccccc2)cc1 [ANTAZOLINE PHOSPHATE] | 97.11 | –
CC(=O)Oc1ccccc1C(=O)O [ASPIRIN] | 96.37 | –
CCCCCCCCCCCCC[N+](C)(C)Cc1ccccc1.[Cl-] [BENZALKONIUM CHLORIDE] | – | 78.42
COc1ccc(-c2oc3cc(O[C@@H]4O[C@H](CO)[C@@H](O)[C@H](O)[C@H]4O)c(OC)c(O)c3c(=O)c2OC)cc1O [CENTAUREIN] | 91.7 | –
CC1=C(C(=O)O)N2C(=O)[C@@H](NC(=O)[C@H](N)C3=CCC=CC3)[C@H]2SC1 [CEPHRADINE] | 100.4 | –
Clc1ccccc1C(c1ccccc1)(c1ccccc1)n1ccnc1 [CLOTRIMAZOLE] | 105.9 | –
CC(=O)O[C@]1(C(C)=O)CC[C@H]2[C@@H]3C=C(Cl)C4=CC(=O)[C@@H]5C[C@@H]5[C@]4(C)[C@H]3CC[C@@]21C [CYPROTERONE ACETATE] | 103.2 | –
CC(=O)OCC(=O)[C@H]1CC[C@H]2[C@@H]3CCC4=CC(=O)CC[C@]4(C)[C@H]3CC[C@]12C [DESOXYCORTICOSTERONE ACETATE] | 88.97 | –
C[C@@H]1C[C@H]2[C@@H]3CCC4=CC(=O)C=C[C@]4(C)[C@@]3(F)[C@@H](O)C[C@]2(C)[C@@]1(O)C(=O)CO [DEXAMETHASONE] | 103.9 | –
CC/C(=C(/CC)c1ccc(O)cc1)c1ccc(O)cc1 [DIETHYLSTILBESTROL] | 45.56 | –
CC1(C)OC(=O)NC1=O [DIMETHADIONE] | 109.1 | –

SMILES | residual activity [1] [%] | residual activity [2] [%]
OCCN(CCO)c1nc(N2CCCCC2)c2nc(N(CCO)CCO)nc(N3CCCCC3)c2n1 [DIPYRIDAMOLE] | 89.24 | –
O=c1[nH]c2ccccc2n1CCCN1CCC(n2c(=O)[nH]c3cc(Cl)ccc32)CC1 [DOMPERIDONE] | 111 | –
CN(C)CCC=C1c2ccccc2COc2ccccc21.Cl [DOXEPIN HYDROCHLORIDE] | 101.8 | –
C[C@H]1c2cccc(O)c2C(=O)C2=C(O)[C@]3(O)C(=O)C(C(N)=O)=C(O)[C@@H](N(C)C)[C@@H]3[C@@H](O)[C@@H]21.Cl [DOXYCYCLINE HYDROCHLORIDE] | 106 | –
CN(C)CCOC(C)(c1ccccc1)c1ccccn1.O=C(O)CCC(=O)O (centres undefined) [DOXYLAMINE SUCCINATE] | 108.8 | –
O=C(CCCN1CC=C(n2c(=O)[nH]c3ccccc32)CC1)c1ccc(F)cc1 [DROPERIDOL] | 147.6 | –
CN[C@@H](C)[C@H](O)c1ccccc1.Cl [EPHEDRINE HYDROCHLORIDE] | 105.1 | –
C=C1CC[C@H](O)C/C1=C/C=C1\CCC[C@]2(C)[C@@H]([C@H](C)/C=C/[C@H](C)C(C)C)CC[C@@H]12 [ERGOCALCIFEROL] | 28.81 | –
CC(=O)Oc1ccc2c(c1)CC[C@@H]1[C@@H]2CC[C@]2(C)[C@@H](O)CC[C@@H]12 [ESTRADIOL ACETATE] | 101 | –
CCC(=O)O[C@H]1CC[C@H]2[C@@H]3CCc4cc(O)ccc4[C@H]3CC[C@]12C [ESTRADIOL PROPIONATE] | 111.9 | –
CCOc1ccc(Cc2nccc3cc(OCC)c(OCC)cc23)cc1OCC.Cl [ETHAVERINE HYDROCHLORIDE] | 156.2 | –
COc1cc(O)c2c(=O)cc(C)oc2c1CC=C(C)C [HETEROPEUCENIN, METHYL ETHER] | 110.3 | –
COc1ccc2c(c1)O[C@H]1c3ccc(OC)cc3OC[C@@H]21 [HOMOPTEROCARPIN] | 109.3 | –
CN1[C@@H]2CC[C@H]1C[C@@H](OC(=O)[C@H](CO)c1ccccc1)C2 [HYOSCYAMINE] | – | 97.76
CN1C[C@H](CNC(=O)OCc2ccccc2)C[C@@H]2c3cccc4c3c(cn4C)C[C@H]21 [METERGOLINE] | 93.79 | –
CCOC(=O)C1=C(C)NC(C)=C(C(=O)OC)C1c1cccc([N+](=O)[O-])c1 (centres undefined) [NITRENDIPINE] | 77.72 | –
COc1ccc(-c2cc(=O)c3c(OC)c(OC)c(OC)c(OC)c3o2)cc1OC [NOBILETIN] | 133.3 | –
O=C(O)CCc1nc(-c2ccccc2)c(-c2ccccc2)o1 [OXAPROZIN] | 71.47 | –
CC(=O)O[C@H]1C(=O)[C@@]2(C)[C@H]([C@H](OC(=O)c3ccccc3)[C@]3(O)C[C@H](OC(=O)[C@H](O)[C@@H](NC(=O)c4ccccc4)c4ccccc4)C(C)=C1C3(C)C)[C@]1(OC(C)=O)CO[C@@H]1C[C@@H]2O [PACLITAXEL] | 52.9 | –
CCCCC1C(=O)N(c2ccccc2)N(c2ccccc2)C1=O [PHENYLBUTAZONE] | 62.24 | –
COc1cc(O)cc(/C=C/c2ccccc2)c1 [PINOSYLVIN METHYL ETHER] | 91.5 | –
CC(=O)[C@H]1CC[C@H]2[C@@H]3CC=C4C[C@@H](O)CC[C@]4(C)[C@H]3CC[C@]12C [PREGNENOLONE] | 110.4 | –
COC1=C[C@@H](C)[C@@H]2C[C@H]3OC(=O)C[C@H]4C(C)=C(OC)C(=O)[C@H]([C@@]2(C)C1=O)[C@@]34C [QUASSIN] | 100.5 | –
COc1ccc(/C=C/c2cc(O)cc(O)c2)cc1 [RESVERATROL 4'-METHYL ETHER] | 135 | –
COc1ccc(-c2cc(=O)c3c(OC)c(OC)c(OC)c(OC)c3o2)cc1 [TANGERETIN] | 175 | –
CC(=O)Oc1c(C)c(C)c2c(c1C)CCC(C)(CCCC(C)CCCC(C)CCCC(C)C)O2 (stereo not drawn) [alpha-TOCHOPHERYL ACETATE] | 93.84 | –

From ChEMBL document CHEMBL3039007, “Structure-based identification of OATP1B1/3 inhibitors” (Mol Pharmacol, 2013)
